Data reported in patent US9249129B2, “Morpholino substituted urea derivatives as mTOR inhibitors” (CELLZOME LIMITED, priority 2010, dated 2016).

How the values were obtained:
Experiment in all cases: kinobeads assay with mass spectrometry detection of kinases (kinase selectivity profile)
Type in all cases: binding
[1] = molecular target: T1, kinases (kinome) (Homo sapiens, UniProt P05771); details: PKCb (AGC), IPI00219628
T1 construct: determined in kinobeads assays with mass spectrometry detection of kinases as described previously; endogenous in cells; host or cells: cell lysate
Description: (§1) The protein kinase complement of the human genome (the kinome) was described previously (Manning et al., 2002. Science 298(5600):1912-1934). Sequence accession numbers are defined by the International Protein Index (IPI) (Kersey et al., 2004. Proteomics 4(7):1985-1988).

[2] = molecular target: T2, kinases (kinome) (Homo sapiens, UniProt Q8TD19); details: NEK9 (Other), IPI00301609
T2 construct: determined in kinobeads assays with mass spectrometry detection of kinases as described previously; endogenous in cells; host or cells: cell lysate
T2 sequence (Q8TD19 1-979): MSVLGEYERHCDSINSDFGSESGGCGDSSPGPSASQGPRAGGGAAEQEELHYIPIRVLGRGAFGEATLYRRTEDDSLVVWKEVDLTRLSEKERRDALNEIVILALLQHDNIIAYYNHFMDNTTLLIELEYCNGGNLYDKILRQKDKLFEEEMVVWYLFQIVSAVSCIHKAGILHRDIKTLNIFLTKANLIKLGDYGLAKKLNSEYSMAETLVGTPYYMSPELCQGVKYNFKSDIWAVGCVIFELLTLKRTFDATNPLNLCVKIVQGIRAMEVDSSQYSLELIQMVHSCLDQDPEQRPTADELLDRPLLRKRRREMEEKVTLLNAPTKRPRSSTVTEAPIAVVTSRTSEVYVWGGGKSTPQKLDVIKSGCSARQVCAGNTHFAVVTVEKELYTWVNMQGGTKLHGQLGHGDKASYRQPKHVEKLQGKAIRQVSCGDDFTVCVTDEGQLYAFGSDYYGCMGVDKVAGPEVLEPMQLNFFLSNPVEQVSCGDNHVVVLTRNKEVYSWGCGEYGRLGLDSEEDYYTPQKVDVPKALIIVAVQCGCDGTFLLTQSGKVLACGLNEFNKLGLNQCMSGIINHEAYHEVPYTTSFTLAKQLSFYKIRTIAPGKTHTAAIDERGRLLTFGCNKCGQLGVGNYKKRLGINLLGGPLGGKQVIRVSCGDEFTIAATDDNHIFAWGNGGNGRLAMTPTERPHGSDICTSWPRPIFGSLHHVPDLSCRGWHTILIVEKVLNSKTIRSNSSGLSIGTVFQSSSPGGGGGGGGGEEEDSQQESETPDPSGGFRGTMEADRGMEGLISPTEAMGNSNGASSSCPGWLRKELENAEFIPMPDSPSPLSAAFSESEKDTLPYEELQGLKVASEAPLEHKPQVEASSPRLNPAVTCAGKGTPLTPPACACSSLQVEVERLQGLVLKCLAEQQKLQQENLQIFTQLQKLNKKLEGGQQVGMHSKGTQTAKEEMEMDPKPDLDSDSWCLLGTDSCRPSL
Description: as §1

[3] = molecular target: T3, kinases (kinome) (Homo sapiens, UniProt Q9BQI3); details: HRI (Other), IPI00328149
T3 construct: determined in kinobeads assays with mass spectrometry detection of kinases as described previously; endogenous in cells; host or cells: cell lysate
Description: as §1

[4] = molecular target: T4, kinases (kinome) (Homo sapiens, UniProt Q04759); details: PKCt (AGC), IPI00029196
T4 construct: determined in kinobeads assays with mass spectrometry detection of kinases as described previously; endogenous in cells; host or cells: cell lysate
Description: as §1

[5] = molecular target: T5, kinases (kinome) (Homo sapiens, UniProt Q00534); details: CDK6 (CMGC), IPI00023529
T5 construct: determined in kinobeads assays with mass spectrometry detection of kinases as described previously; endogenous in cells; host or cells: cell lysate
Description: as §1

[6] = molecular target: T6, kinases (kinome) (Homo sapiens, UniProt P23458); details: JAK1 (TK), IPI00784013
T6 construct: determined in kinobeads assays with mass spectrometry detection of kinases as described previously; endogenous in cells; host or cells: cell lysate
Description: as §1

[7] = molecular target: T7, kinases (kinome) (Homo sapiens, UniProt Q00535); details: CDK5 (CMGC), IPI00023530
T7 construct: determined in kinobeads assays with mass spectrometry detection of kinases as described previously; endogenous in cells; host or cells: cell lysate
Description: as §1

[8] = molecular target: T8, kinases (kinome) (Homo sapiens, UniProt O14965); details: AurA (Other), IPI00298940
T8 construct: determined in kinobeads assays with mass spectrometry detection of kinases as described previously; endogenous in cells; host or cells: cell lysate
T8 sequence (O14965 1-403): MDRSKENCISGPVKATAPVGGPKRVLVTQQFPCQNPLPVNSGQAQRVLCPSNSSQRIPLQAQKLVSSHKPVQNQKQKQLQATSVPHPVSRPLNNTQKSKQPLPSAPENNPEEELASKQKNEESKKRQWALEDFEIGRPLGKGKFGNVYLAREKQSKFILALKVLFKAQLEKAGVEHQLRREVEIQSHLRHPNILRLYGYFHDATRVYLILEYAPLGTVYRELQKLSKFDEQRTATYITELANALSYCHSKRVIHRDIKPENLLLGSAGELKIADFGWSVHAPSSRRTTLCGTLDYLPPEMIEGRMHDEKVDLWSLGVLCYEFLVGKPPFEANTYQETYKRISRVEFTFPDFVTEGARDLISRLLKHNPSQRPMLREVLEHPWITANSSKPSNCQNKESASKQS
Description: as §1

[9] = molecular target: T9, kinases (kinome) (Homo sapiens, UniProt Q14164); details: IKKe (Other), IPI00029045
T9 construct: determined in kinobeads assays with mass spectrometry detection of kinases as described previously; endogenous in cells; host or cells: cell lysate
T9 sequence (Q14164 1-716): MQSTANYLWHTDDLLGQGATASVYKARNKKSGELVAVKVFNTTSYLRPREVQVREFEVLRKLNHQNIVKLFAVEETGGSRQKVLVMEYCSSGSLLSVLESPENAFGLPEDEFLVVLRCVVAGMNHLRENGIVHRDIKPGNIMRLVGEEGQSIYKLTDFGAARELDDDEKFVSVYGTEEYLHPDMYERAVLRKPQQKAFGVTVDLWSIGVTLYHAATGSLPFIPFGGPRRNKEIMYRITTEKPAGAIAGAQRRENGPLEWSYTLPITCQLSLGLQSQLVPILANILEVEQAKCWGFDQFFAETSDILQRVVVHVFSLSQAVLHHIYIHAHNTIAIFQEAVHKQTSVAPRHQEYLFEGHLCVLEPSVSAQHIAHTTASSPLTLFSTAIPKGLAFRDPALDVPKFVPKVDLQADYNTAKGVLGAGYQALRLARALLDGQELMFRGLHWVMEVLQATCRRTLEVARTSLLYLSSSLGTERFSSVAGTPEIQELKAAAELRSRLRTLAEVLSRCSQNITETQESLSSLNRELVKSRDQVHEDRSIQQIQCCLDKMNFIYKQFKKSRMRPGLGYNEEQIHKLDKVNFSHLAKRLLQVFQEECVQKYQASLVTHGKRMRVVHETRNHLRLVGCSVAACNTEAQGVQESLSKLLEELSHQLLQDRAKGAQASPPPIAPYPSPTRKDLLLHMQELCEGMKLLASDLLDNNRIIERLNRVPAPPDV
Description: as §1

[10] = molecular target: T10, kinases (kinome) (Homo sapiens, UniProt P43405); details: SYK (TK), IPI00018597
T10 construct: determined in kinobeads assays with mass spectrometry detection of kinases as described previously; endogenous in cells; host or cells: cell lysate
Description: as §1

Measured: IC50

T7 sequence (Q00535 whole entry): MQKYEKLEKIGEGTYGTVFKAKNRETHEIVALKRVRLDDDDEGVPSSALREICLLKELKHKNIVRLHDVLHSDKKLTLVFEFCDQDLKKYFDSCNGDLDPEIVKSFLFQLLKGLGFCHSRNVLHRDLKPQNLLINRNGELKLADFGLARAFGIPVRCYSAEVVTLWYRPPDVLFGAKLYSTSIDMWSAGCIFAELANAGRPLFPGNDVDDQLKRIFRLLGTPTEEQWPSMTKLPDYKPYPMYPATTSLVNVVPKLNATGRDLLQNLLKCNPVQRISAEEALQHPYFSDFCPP
T3 sequence (Q9BQI3 whole entry): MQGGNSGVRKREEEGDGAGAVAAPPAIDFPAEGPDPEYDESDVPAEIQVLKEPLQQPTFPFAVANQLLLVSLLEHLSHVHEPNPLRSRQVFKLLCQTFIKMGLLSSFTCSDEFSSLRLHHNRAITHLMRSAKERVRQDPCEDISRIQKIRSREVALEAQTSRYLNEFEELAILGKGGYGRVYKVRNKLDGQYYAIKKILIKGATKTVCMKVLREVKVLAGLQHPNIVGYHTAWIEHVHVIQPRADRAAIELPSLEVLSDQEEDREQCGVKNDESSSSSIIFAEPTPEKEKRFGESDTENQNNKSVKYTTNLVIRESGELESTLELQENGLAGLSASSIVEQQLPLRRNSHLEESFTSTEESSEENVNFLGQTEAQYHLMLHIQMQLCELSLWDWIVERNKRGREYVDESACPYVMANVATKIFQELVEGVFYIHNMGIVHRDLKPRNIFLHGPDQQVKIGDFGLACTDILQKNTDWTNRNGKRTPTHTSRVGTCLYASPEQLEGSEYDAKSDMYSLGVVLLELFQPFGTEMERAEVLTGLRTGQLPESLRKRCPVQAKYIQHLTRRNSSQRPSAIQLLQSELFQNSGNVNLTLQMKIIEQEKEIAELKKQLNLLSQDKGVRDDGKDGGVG
T6 sequence (P23458 whole entry): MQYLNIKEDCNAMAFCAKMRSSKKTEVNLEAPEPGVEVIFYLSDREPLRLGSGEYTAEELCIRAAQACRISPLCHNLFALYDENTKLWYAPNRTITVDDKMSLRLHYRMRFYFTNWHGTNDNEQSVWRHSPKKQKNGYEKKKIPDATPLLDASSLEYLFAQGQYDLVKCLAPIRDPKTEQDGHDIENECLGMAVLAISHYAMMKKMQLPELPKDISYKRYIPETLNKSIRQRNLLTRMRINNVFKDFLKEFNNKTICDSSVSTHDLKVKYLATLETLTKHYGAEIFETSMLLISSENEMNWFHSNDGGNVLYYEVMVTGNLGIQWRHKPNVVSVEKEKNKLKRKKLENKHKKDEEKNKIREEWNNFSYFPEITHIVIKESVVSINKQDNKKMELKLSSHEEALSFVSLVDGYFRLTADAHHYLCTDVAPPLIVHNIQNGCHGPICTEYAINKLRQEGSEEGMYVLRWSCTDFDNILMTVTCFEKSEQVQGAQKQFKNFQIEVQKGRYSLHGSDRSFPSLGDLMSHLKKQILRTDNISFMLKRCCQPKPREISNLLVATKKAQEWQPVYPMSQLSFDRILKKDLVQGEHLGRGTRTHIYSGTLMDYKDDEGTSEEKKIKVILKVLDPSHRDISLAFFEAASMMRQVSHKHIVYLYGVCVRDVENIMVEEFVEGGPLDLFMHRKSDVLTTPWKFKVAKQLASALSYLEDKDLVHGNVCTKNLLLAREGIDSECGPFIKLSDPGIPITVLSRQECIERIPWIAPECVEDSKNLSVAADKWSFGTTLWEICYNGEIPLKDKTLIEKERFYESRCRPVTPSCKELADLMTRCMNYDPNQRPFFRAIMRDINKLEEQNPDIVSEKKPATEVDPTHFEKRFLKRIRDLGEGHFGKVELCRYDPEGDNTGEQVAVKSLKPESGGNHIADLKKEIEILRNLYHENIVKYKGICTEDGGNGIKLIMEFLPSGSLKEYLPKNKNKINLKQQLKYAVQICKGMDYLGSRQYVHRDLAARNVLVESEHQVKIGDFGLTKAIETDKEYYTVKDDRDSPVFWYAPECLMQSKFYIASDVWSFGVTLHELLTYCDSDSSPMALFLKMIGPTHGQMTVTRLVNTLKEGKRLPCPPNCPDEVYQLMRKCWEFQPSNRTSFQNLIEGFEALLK
T1 sequence (P05771 whole entry): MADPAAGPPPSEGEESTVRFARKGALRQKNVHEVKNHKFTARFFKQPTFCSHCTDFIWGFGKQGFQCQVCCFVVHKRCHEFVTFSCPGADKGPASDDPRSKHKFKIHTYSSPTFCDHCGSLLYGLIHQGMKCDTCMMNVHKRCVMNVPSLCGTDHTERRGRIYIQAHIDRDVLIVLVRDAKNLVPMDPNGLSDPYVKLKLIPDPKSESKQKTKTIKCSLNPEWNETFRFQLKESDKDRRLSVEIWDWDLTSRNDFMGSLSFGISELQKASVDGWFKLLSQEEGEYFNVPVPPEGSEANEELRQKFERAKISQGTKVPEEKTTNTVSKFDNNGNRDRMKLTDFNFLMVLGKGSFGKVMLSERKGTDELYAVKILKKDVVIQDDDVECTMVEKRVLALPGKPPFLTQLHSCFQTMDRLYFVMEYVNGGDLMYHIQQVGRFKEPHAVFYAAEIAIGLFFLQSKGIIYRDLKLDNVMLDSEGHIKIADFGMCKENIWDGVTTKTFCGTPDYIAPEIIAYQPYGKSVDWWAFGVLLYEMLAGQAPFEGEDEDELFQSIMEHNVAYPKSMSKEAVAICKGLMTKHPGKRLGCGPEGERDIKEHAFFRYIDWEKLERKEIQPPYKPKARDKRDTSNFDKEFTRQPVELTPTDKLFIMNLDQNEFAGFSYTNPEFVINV
T4 sequence (Q04759 whole entry): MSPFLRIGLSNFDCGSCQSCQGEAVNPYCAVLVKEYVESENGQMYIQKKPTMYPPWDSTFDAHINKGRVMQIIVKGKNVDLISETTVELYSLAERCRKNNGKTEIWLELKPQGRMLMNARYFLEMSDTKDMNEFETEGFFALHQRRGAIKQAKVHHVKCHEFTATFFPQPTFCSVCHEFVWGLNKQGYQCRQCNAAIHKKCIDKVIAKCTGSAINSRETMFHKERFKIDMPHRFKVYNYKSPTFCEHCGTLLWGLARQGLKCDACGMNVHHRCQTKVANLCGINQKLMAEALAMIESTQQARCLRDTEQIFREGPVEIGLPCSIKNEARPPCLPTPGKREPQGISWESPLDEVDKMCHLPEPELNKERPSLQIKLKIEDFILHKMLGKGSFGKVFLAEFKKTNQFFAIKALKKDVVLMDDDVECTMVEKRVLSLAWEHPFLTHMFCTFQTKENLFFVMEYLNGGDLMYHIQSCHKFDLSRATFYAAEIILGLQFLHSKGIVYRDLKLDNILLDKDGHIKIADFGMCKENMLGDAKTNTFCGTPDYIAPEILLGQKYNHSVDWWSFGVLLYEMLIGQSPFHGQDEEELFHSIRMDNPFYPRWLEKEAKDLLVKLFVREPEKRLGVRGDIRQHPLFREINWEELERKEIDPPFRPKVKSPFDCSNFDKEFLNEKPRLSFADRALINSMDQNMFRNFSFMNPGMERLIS
T5 sequence (Q00534 whole entry): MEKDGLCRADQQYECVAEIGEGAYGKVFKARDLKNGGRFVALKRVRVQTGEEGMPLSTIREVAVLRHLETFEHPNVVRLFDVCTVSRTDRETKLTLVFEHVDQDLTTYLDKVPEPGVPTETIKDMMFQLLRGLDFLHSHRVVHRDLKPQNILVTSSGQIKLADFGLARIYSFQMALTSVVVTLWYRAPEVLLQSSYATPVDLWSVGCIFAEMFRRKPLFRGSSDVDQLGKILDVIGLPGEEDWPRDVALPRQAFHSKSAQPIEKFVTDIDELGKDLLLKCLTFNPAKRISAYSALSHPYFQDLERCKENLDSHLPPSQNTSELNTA

C[C@H]1COCCN1c1nc(-c2ccc(NC(=O)NC3CC3)cc2)cc(-c2ccccc2S(C)(=O)=O)n1 [Example 4, (S)-1-cyclopropyl-3-(4-(2-(3-methylmorpholino)-6-(2-(methylsulfonyl)phenyl)pyrimidin-4-yl)phenyl)urea]
> 10 µM: all assays above

C[C@H]1COCCN1c1cc(-c2ccccc2S(C)(=O)=O)nc(-c2ccc(NC(=O)NC3CC3)cc2)n1 [Example 6, (S)-1-cyclopropyl-3-(4-(4-(3-methylmorpholino)-6-(2-(methylsulfonyl)phenyl)pyrimidin-2-yl)phenyl)urea]
not listed: [3]
> 10 µM: all other assays above

C[C@H]1COCCN1c1nc(-c2ccc(NC(=O)N[C@H]3CCC[C@@H]3O)cc2)cc(-c2cc(F)ccc2S(C)(=O)=O)n1 [Example 76, 1-(4-(6-(5-fluoro-2-(methylsulfonyl)phenyl)-2-((S)-3-methylmorpholino)pyrimidin-4-yl)phenyl)-3-((1S,2S)-2-hydroxycyclopentyl)urea]
> 10 µM: all assays above

C[C@H]1COCCN1c1nc(-c2ccc(NC(=O)NC3CC3)cc2)cc(-c2cccnc2S(C)(=O)=O)n1 [Example 46, (S)-1-cyclopropyl-3-(4-(2-(3-methylmorpholino)-6-(2-(methylsulfonyl)pyridin-3-yl)pyrimidin-4-yl)phenyl)urea]
> 10 µM: all assays above

C[C@H]1COCCN1c1cc(-c2ccccn2)nc(-c2ccc(NC(=O)NCCO)cc2)n1 [Example 43, (S)-1-(2-hydroxyethyl)-3-(4-(4-(3-methylmorpholino)-6-(pyridin-2-yl)pyrimidin-2-yl)phenyl)urea]
> 10 µM: all assays above

C[C@H]1COCCN1c1nc(-c2ccc(NC(=O)NC3CC3)cc2)cc(-c2cc(F)ccc2S(C)(=O)=O)n1 [Example 40, (S)-1-cyclopropyl-3-(4-(6-(5-fluoro-2-(methylsulfonyl)phenyl)-2-(3-methylmorpholino)pyrimidin-4-yl)phenyl)urea]
> 10 µM: all assays above

CCNC(=O)Nc1ccc(-c2cc(-c3ccccc3C#N)nc(N3CCOC[C@@H]3C)n2)cc1 [Example 8, (S)-1-(4-(6-(2-cyanophenyl)-2-(3-methylmorpholino)pyrimidin-4-yl)phenyl)-3-ethylurea]
not listed: [5]
> 10 µM: all other assays above
